What was measured:
[1] = molecular target: T1, Receptor-type tyrosine-protein kinase FLT3 (Homo sapiens, UniProt P36888); experiment: biochemical; type: cell-based, HEK293
T1 sequence (P36888 whole entry): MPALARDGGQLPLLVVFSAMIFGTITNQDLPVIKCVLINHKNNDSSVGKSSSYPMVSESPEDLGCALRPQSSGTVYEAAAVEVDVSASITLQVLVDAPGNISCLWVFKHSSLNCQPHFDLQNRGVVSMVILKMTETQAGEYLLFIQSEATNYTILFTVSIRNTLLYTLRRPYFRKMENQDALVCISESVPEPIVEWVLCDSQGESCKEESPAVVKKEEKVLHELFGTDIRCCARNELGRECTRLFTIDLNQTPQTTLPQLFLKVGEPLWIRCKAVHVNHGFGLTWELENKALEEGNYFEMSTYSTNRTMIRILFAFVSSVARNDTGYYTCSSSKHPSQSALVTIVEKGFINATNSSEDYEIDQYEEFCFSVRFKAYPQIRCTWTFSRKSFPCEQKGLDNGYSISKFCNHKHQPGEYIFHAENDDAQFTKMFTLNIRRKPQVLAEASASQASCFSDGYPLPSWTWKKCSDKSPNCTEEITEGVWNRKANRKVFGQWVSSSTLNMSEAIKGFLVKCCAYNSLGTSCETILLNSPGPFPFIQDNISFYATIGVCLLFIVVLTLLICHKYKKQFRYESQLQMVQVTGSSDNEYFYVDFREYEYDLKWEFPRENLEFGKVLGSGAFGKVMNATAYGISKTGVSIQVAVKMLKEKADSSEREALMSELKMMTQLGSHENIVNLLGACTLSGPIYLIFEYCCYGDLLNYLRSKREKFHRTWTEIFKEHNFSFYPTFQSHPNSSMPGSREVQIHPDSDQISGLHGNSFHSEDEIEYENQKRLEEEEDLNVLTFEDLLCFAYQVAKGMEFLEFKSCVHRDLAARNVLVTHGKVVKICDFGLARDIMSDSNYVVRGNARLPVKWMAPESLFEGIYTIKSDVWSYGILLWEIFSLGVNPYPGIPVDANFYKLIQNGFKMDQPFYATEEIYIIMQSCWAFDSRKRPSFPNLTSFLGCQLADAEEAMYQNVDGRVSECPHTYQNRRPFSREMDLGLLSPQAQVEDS
Description: Binding affinity to FLT3 catalytic domain expressed in HEK293 cells by competitive binding assay

[2] = tested on: MV4-11; experiment: cells; details: Homo sapiens, MV4-11, 72 h
Description: Antiproliferative activity against human MV4-11 cells after 72 hrs by cell titer-blue cell viability assay

[3] = in vivo; details: athymic nude, mouse, po, 10 mg/kg
Description: Cmax in athymic nude mouse at 10 mg/kg, po

[4] = in vivo; details: athymic nude, mouse, plasma, po, 10 mg/kg
Description: AUC (0 to infinity) in athymic nude mouse at 10 mg/kg, po

[5] = in vivo; details: athymic nude, mouse, po, 10 mg/kg; remark: listed apart in the source
Description: Half life in athymic nude mouse at 10 mg/kg, po

With CC(C)(C)c1cc(NC(=O)Nc2ccc(-c3cn4c(n3)sc3cccc(OCCN5CCOCC5)c34)cc2)no1 the Kd [1] was 5.2 nM and the IC50 [2] was 9.3 nM.
CC(C)(C)c1cc(NC(=O)Nc2ccc(-c3cn4c(n3)sc3cc(OCCCN5CCOCC5)ccc34)cc2)no1 showed a Kd [1] of 0.99 nM and an IC50 [2] of 0.79 nM.
CC(C)(C)c1cc(NC(=O)Nc2ccc(-c3cn4c(n3)sc3ccc(OCCN5CCOCC5)cc34)cc2)no1 showed a Kd [1] of 2.3 nM and an IC50 [2] of 0.56 nM.
With CCN1CCN(C(=O)CCc2ccc3c(c2)sc2nc(-c4ccc(NC(=O)Nc5cc(C(C)(C)C)on5)cc4)cn23)CC1 the Kd [1] was 2 nM and the IC50 [2] was 0.66 nM.
In the case of CC(C)(C)c1cc(NC(=O)Nc2ccc(-c3cn4c(n3)sc3cc(O)ccc34)cc2)no1, the Kd [1] is reported as 2.7 nM and the IC50 [2] is reported as 0.15 nM.
Compound CN1CCN(CCCOc2ccc3c(c2)sc2nc(-c4ccc(NC(=O)Nc5cc(C(C)(C)C)on5)cc4)cn23)CC1 has a Kd [1] of 1.7 nM and an IC50 [2] of 0.78 nM.
Compound CC(C)(C)c1cc(NC(=O)Nc2ccc(-c3cn4c(n3)sc3cc(OCCN5CCCCC5)ccc34)cc2)no1 has a Kd [1] of 1.5 nM and an IC50 [2] of 0.88 nM.
For CCN1CCN(Cc2ccc3c(c2)sc2nc(-c4ccc(NC(=O)Nc5cc(C(C)(C)C)on5)cc4)cn23)CC1, the Kd [1] was 1.1 nM and the IC50 [2] was 0.38 nM.
In the case of CCN1CCN(C(=O)c2ccc3c(c2)sc2nc(-c4ccc(NC(=O)Nc5cc(C(C)(C)C)on5)cc4)cn23)CC1, the Kd [1] is reported as 0.98 nM, the IC50 [2] is reported as 0.41 nM and the Cmax [3] is reported as 490 nM. It also gave an AUC(0-inf) [4] of 0.67 µM·h and a half-life [5] of 6.7 h.
In the case of CN1CCN(c2ccc3c(c2)sc2nc(-c4ccc(NC(=O)Nc5cc(C(C)(C)C)on5)cc4)cn23)CC1, the Kd [1] is reported as 1.2 nM and the IC50 [2] is reported as 0.62 nM.
CC(C)(C)c1cc(NC(=O)Nc2ccc(-c3cn4c(n3)sc3cc(C(=O)O)ccc34)cc2)no1 showed a Kd [1] of 1.6 nM, an IC50 [2] of 1 nM and a Cmax [3] of 2090 nM. For the same compound, the AUC(0-inf) [4] was 21.3 µM·h and the half-life [5] was 4.5 h.
With CC(C)(C)c1cc(NC(=O)Nc2ccc(-c3cn4c(n3)sc3cc(CCC(=O)O)ccc34)cc2)no1 the Kd [1] was 1.3 nM and the IC50 [2] was 0.41 nM.
In the case of CC(C)(C)c1cc(NC(=O)Nc2ccc(-c3cn4c(n3)sc3cc(CCCN5CCOCC5)ccc34)cc2)no1, the Kd [1] is reported as 1.3 nM, the IC50 [2] is reported as 0.53 nM and the Cmax [3] is reported as 2190 nM. It also gave an AUC(0-inf) [4] of 14.6 µM·h and a half-life [5] of 2.3 h.
Compound CC(C)(C)c1cc(NC(=O)Nc2ccc(-c3cn4c(n3)sc3ccccc34)cc2)no1 has a Kd [1] of 1.9 nM and an IC50 [2] of 0.35 nM.
Compound CC(C)(C)c1cc(NC(=O)Nc2ccc(-c3cn4c(n3)sc3cc(OCCCN5CCN(S(C)(=O)=O)CC5)ccc34)cc2)no1 has a Kd [1] of 9.7 nM, an IC50 [2] of 1.1 nM and a Cmax [3] of 1580 nM. For the same compound, the AUC(0-inf) [4] was 11.7 µM·h and the half-life [5] was 4.6 h.
Work on CC(C)(C)c1cc(NC(=O)Nc2ccc(-c3cn4c(n3)sc3cc(CCC(=O)N5CCOCC5)ccc34)cc2)no1 yielded a Kd [1] of 1.5 nM and an IC50 [2] of 0.23 nM.
